Test results from patent US20110009616A1, “AGENT FOR PREVENTING ARTERIOSCLEROSIS” (priority 2006, published 2011).

What was measured:
hLOX-1 = biological target: T1, hLOX-1 (Homo sapiens, UniProt P78380); test: Fluorescently labeled oxidized LDL uptake into CHO cells expressing hLOX-1, tetracycline induction (Example 6); type: cell-based; settings: FIG. 5; control = 100%; compared with anti-hLOX antibody
T1 construct: expressed in transfected cells; host or cells: CHO-K1 Tet-On cell line (Clontech), pTRE-hLOX1 (B), doxycycline induction
Procedure: As for the same compounds as in Example 5, using Chinese hamster ovary (CHO) cells stably expressing bLOX-1, an ability to suppress fluorescently labeled oxidized LDL uptake into the CHO cells through the bLOX-1 was evaluated. Furthermore, as for the hLOX-1, in the CHO cells using an induction system of tetracycline gene expression, an ability to suppress fluorescently labeled oxidized LDL uptake through the hLOX-1 was evaluated.
As the CHO cells which express the hLOX-1 depending on tetracycline concentrations, the cells transfected with the plasmid described below in a known method were used. The transfected plasmid has a system where a hLOX-1 coding region integrated in pcDNA3.1-hLOX1-V5 (Journal of Molecular and Cellular Cardiology 39 (3) 553-561 (2005)) is mounted in a tetracycline response vector and the expression of hLOX-1 can be controlled depending on the concentration of tetracycline or doxycycline.
An assay using the CHO cells was carried out in the following manner. […] Then, the oxidized LDL labeled with 1,1′-dioctadecyl-3,3,3′,3′-tetramethylindocarbocyanine perchlorate (DiI, manufactured by Invitrogen), a carbocyanine fluorescence pigment, was applied to each well so as to be 5 μg/mL, and, under the environment described above, the uptake of the fluorescently labeled oxidized LDL was performed into the CHO cells for 4 hours. […]

[1] = system: caveola transport pathway; test: Uptake of CTB, transport marker of caveola pathway, into COS-1 cells (Example 7); type: cell-based, African green monkey; settings: FIG. 6
smooth muscle cells = test: Oxidized LDL uptake into smooth muscle cells, IN Cell Analyzer (Example 8); type: cell-based; settings: FIG. 7
Procedure: As for the compounds in Examples 1 and 2 and Comparative Example 6, the abilities to suppress the oxidized LDL uptake into the smooth muscle cells were evaluated in a similar method to Example 6.
The smooth muscle cells were prepared to 1×10^5 cells/mL and seeded into a 96-well plate. After cultivating for two days, the cells were treated by each inhibitor in a similar method to Example 6. After the treatment of each inhibitor, the cells were washed with PBS three times and fixed with a 10% formalin solution at room temperature in the dark for 10 minutes. The fixed cells were washed with ultrapure water twice and the nuclei were dyed with DAPI. These cells were analyzed with “IN Cell Analyzer” (manufactured by GE Healthcare Bio-Sciences KK), and the uptake number of Dil-labeled oxidized LDL into the smooth muscle cells was divided by the number of nuclei. Furthermore, 4 fields of view per well were measured and the measurements were n=3 per treatment.

For C=Cc1c(C)c2cc3nc(c4c5[nH]c(cc6nc(cc1[nH]2)C(C)=C6CC)c(C)c5C(=O)[C@@H]4C(=O)OC)[C@@H](CCC(=O)O)[C@@H]3C [pheophorbide a], the “amount of oxidized LDL uptake into CHO cells expressing hLOX-1” value (hLOX-1) was “stronger uptake inhibition on hLOX-1 than that of the anti-hLOX antibody”, the “inhibition of caveola transport pathway (CTB uptake)” value [1] was “inhibits the caveola transport pathway significantly” and the “ability to suppress oxidized LDL uptake in smooth muscle cells” value (smooth muscle cells) was “very strong ability to suppress the uptake”. For the same compound, the “suppression of oxidized LDL uptake in smooth muscle cells, compared with anti-LOX-1 antibody” value (smooth muscle cells) was “stronger suppression effect than that of the anti-LOX-1 antibody”.
